Assay results from patent EP2041131B1, “AZAINDOLE DERIVATIVES WITH A COMBINATION OF PARTIAL NICOTINIC ACETYLCHOLINE RECEPTOR AGONISM AND DOPAMINE REUPTAKE INHIBITION” (Abbott Healthcare Products B.V., priority 2006, dated 2008).
Where two headings read alike, the source gives them in different places.

Key:
rat striatal slices = test: In vitro [^3H]-Dopamine release; format: cell-based
dopamine uptake sites = target: T1, dopamine uptake sites (Rattus norvegicus, UniProt P23977); test: In vitro [^3H]-Dopamine uptake in striatal synaptosomes; format: biochemical
T1 construct: the striatum was rapidly removed and a crude synaptosomal fraction (P2) was prepared; from tissue; host or cells: rat striatum, crude synaptosomal fraction (P2)
T1 sequence (P23977 whole entry): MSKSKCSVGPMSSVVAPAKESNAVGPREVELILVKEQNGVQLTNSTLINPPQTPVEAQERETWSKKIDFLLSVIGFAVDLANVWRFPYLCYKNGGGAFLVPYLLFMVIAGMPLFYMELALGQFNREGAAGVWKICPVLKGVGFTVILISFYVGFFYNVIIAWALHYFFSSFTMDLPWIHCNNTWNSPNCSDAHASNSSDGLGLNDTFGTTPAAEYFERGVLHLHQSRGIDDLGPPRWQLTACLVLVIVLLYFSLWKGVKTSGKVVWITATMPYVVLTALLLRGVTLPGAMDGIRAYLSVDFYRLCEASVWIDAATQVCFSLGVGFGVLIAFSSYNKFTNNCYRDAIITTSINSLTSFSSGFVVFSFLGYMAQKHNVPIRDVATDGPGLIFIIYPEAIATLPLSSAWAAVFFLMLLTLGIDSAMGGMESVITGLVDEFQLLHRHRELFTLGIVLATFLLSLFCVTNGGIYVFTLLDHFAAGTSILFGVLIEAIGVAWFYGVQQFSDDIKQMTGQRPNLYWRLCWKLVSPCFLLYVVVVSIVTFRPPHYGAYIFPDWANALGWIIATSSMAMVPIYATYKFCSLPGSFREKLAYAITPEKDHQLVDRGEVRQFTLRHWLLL
Experimental: Subsequently, [^3H]-dopamine (2x10^-7 M final concentration) was added and incubation was continued for 10 min. [^3H]-dopamine uptake was stopped by filtration and the synaptosomes were washed four times with phosphate buffered saline. The amount of [^3H]-dopamine in the synaptosomes was determined by Betaplate liquid scintillation counting. […] Inhibition of DA uptake was performed in duplicate.

[1] = rat striatal synaptosomes, 10^-9 to 10^-5 M, read-out: Functional activity re-uptake [^3H]-Dopamine pIC50 (converted)
[2] = K+ (10 mM) evoked release, rat striatal slices, compounds added at 10^-8 M and 10^-6 M, table does not say which concentration

| SMILES | Functional activity release [^3H]-Dopamine % of control (rat striatal slices) | IC50 (dopamine uptake sites; [1]) [µM] | Functional activity release [^3H]-Dopamine % of control (rat striatal slices; [2]) | IC50 (dopamine uptake sites) [µM] |
| --- | --- | --- | --- | --- |
| c1cnc2[nH]cc(C[C@H]3CCCN3)c2c1 (stereo in doubt) [Compound 96, (R)-3-pyrrolidin-2-ylmethyl-1H-pyrrolo-[2,3-b]pyridine, reference compound] | 124 % of control | – | – | – |
| CN1CCC[C@@H]1Cc1c[nH]c2ncccc12 (stereo in doubt) [Compound 98, reference compound] | – | > 10 | 132 % of control | – |
| CN1CCC[C@H]1Cc1c[nH]c2ncccc12 (stereo in doubt) [Compound 99, reference compound] | – | – | 112 % of control | – |
| c1cnc2[nH]cc(C3CCCNC3)c2c1 (centres unmarked) [Compound 6, 3-piperidin-3-yl-1 H-pyrrolo[2,3-b]pyridine] | – | – | 139 % of control | 3.98 |
| Clc1ccc2c(C3CCCNC3)c[nH]c2n1 (centres unmarked) [Compound 13, 6-chloro-3-piperidin-3-yl-1 H-pyrrolo[2,3-b]pyridine] | – | 1.58 | 174 % of control | – |
| c1cnc2[nH]c([C@H]3CCCNC3)cc2c1 [Compound 26A, (S)-2-piperidin-3-yl-1H-pyrrolo[2,3-b]pyridine] | – | 2.51 | 139 % of control | – |
| c1cnc2[nH]c([C@@H]3CCCNC3)cc2c1 [Compound 26B, (R)-2-piperidin-3-yl-1H-pyrrolo[2,3-b]pyridine] | – | – | 121 % of control | 0.631 |
| Clc1ccc2cc(C3CCCNC3)[nH]c2n1 (centres unmarked) [Compound 32, 6-chloro-2-piperidin-3-yl-1H-pyrrolo[2,3-b]pyridine] | – | – | 173 % of control | – |
| Clc1ccc2cc([C@@H]3CCCNC3)[nH]c2n1 [Compound 32B, (R)-6-chloro-2-piperidin-3-yl-1H-pyrrolo[2,3-b]pyridine] | – | – | 170 % of control | 0.398 |
| c1cnc2[nH]c(C[C@H]3CCCN3)cc2c1 [Compound 39A, (R)-2-pyrrolidin-2-ylmethyl-1H-pyrrolo[2,3-b]pyridine] | 151 % of control | – | – | – |
| c1cnc2[nH]c(C[C@@H]3CCCN3)cc2c1 [Compound 39B, (S)-2-pyrrolidin-2-ylmethyl-1H-pyrrolo[2,3-b]pyridine] | – | – | 133 % of control | – |
| CN1CCC[C@@H]1Cc1cc2cccnc2[nH]1 [Compound 41A, (R)-2-(1-Methyl-pyrrolidin-2-ylmethyl)-1H-pyrrolo[2,3-b]pyridine] | – | – | 100 % of control | – |
| Clc1ccc2cc(C[C@H]3CCCN3)[nH]c2n1 [Compound 45A, (R)-6-chloro-2-pyrrolidin-2-ylmethyl-1H-pyrrolo[2,3-b]pyridine] | – | – | 115 % of control | – |
| Clc1ccc2cc(C[C@@H]3CCCN3)[nH]c2n1 [Compound 45B, (S)-6-chloro-2-pyrrolidin-2-ylmethyl-1H-pyrrolo[2,3-b]pyridine] | – | 2.51 | 153 % of control | – |
| Brc1ccc2cc(C[C@H]3CCCN3)[nH]c2n1 [Compound 46A, (R)-6-bromo-2-pyrrolidin-2-ylmethyl-1H-pyrrolo[2,3-b]pyridine] | – | – | 92 % of control | – |
| Brc1ccc2cc(C[C@@H]3CCCN3)[nH]c2n1 [Compound 46B, (S)-6-bromo-2-pyrrolidin-2-ylmethyl-1H-pyrrolo[2,3-b]pyridine] | – | – | 123 % of control | – |

| SMILES | Functional activity release [^3H]-Dopamine % of control (rat striatal slices) | IC50 (dopamine uptake sites; [1]) [µM] | Functional activity release [^3H]-Dopamine % of control (rat striatal slices; [2]) | IC50 (dopamine uptake sites) [µM] |
| --- | --- | --- | --- | --- |
| Fc1ccc2cc(C[C@H]3CCCN3)[nH]c2n1 [Compound 47A, (R)-6-fluoro-2-pyrrolidin-2-ylmethyl-1H-pyrrolo[2,3-b]pyridine] | – | – | 137 % of control | – |
| Fc1ccc2cc(C[C@@H]3CCCN3)[nH]c2n1 [Compound 47B, (S)-6-fluoro-2-pyrrolidin-2-ylmethyl-1H-pyrrolo[2,3-b]pyridine] | – | 3.98 | 128 % of control | – |
| COc1ccc2cc(C[C@H]3CCCN3)[nH]c2n1 [Compound 49, (R)-6-methoxy-2-pyrrolidin-2-ylmethyl-1H-pyrrolo[2,3-b]pyridine] | 160 % of control | – | – | – |
| Brc1cnc2[nH]c(C[C@H]3CCCN3)cc2c1 [Compound 52A, (R)-5-bromo-2-pyrrolidin-2-ylmethyl-1H-pyrrolo[2,3-b]pyridine] | 135 % of control | – | – | – |
| c1cnc2[nH]c(C3CCNC3)cc2c1 (centres unmarked) [Compound 78, 2-pyrrolidin-3-yl-1H-pyrrolo[2,3-b]pyridine] | – | 2 | 154 % of control | – |
| c1cnc2[nH]c([C@H]3CCNC3)cc2c1 [Compound 78A, (S)-2-pyrrolidin-3-yl-1H-pyrrolo[2,3-b]pyridine] | – | 3.98 | 109 % of control | – |
| c1cnc2[nH]c([C@@H]3CCNC3)cc2c1 [Compound 78B, (R)-2-pyrrolidin-3-yl-1H-pyrrolo[2,3-b]pyridine] | – | 1.58 | 187 % of control | – |
| c1cnc2cc(C3CCNC3)[nH]c2c1 (centres unmarked) [Compound 79, 2-pyrrolidin-3-yl-1H-pyrrolo[3,2-b]pyridine] | – | 6.31 | 119 % of control | – |
| c1cnc2cc(C[C@H]3CCCN3)[nH]c2c1 [Compound 81A, (R)-2-pyrrolidin-2-ylmethyl-1H-pyrrolo[3,2-b]pyridine] | 153 % of control | – | – | – |
| c1cnc2cc(C[C@@H]3CCCN3)[nH]c2c1 [Compound 81B, (S)-2-pyrrolidin-2-ylmethyl-1H-pyrrolo[3,2-b]pyridine] | 120 % of control | – | – | – |
| COc1ccc2[nH]c(C[C@H]3CCCN3)cc2n1 [Compound 85, (R)-5-methoxy-2-pyrrolidin-2-ylmethyl-1H-pyrrolo[3,2-b]pyridine] | 131 % of control | – | – | – |
| c1cnc2c(C[C@H]3CCCN3)c[nH]c2c1 [Compound 88, (R)-3-pyrrolidin-2-ylmethyl-1H-pyrrolo[3,2-b]pyridine] | – | 7.94 | 110 % of control | – |
| CC(NC(C)(C)C)C(=O)c1cccc(Cl)c1 (centres unmarked) [bupropion, reference compound] | – | 3.98 | 124 % of control | – |
| O=c1cccc2n1C[C@@H]1CNC[C@H]2C1 [cytisine, reference compound] | – | – | 136 % of control | > 10 |
| CN1CCCC1c1cccnc1 (centres unmarked) [nicotine, reference compound] | – | – | 180 % of control | > 10 |
